Measurements published in US4036979A, “Compositions containing 4,5,6,7-tetrahydrobenz[b]thien-4-yl-ureas or derivatives and methods of enhancing growth rate” (American Cyanamid Company, priority 1976, dated 1977).

assay: Mouse Growth Regulant Tests (12-day weight gain over controls, compound in diet); assay type: in vivo, CFI female mice; conditions: Mus musculus, feed or water, 288 h, Table VI; 50 ppm in diet
Protocol: CFI female mice from Carworth Farms are received when they are six weeks old. They are housed ten to a cage in air-conditioned rooms (72° F. to 76° F.) with automatically controlled lights, 14 hours on and 10 hours off. The basal diet used in these studies is Purina Laboratory Chow (see description below), which is supplied ad libitum. Water is also allowed ad libitum.
Thirteen days after arrival, the mice are weighed in groups of ten and assigned at random to the different treatments. Twelve days later the mice are weighed again and the experiment terminated. At least three cages (30 mice) of untreated controls are included in each test. Test data are provided in Tables VI, VII, VIII, and IX below wherein data are reported as percent weight gain over controls. Unless otherwise indicated in these tables, all compounds tested were dl-racemic mixtures. The following is a description of the diet to which the growth promoting compounds were added.

| SMILES | change in vivo at 50 ppm [%] |
| --- | --- |
| CCNC(=O)NC1CCCc2sccc21 (stereo not shown) [Table VI: O,H,H,H,H,C2H5, 1-ethyl-3-(4,5,6,7-tetrahydrobenzo[b]thien-4-yl)urea] | 40.3 |
| CNC(=O)NC1CCCc2sccc21 (stereo not shown) [Table VI: O,H,H,H,H,CH3, 1-methyl-3-(4,5,6,7-tetrahydrobenzo[b]thien-4-yl)urea] | 61.8 |

same assay, conditions: Mus musculus, feed or water, 288 h, Table VI; 200 ppm in diet

| SMILES | change in vivo at 200 ppm [%] |
| --- | --- |
| CCNC(=O)NC1CCCc2sccc21 (stereo not shown) [Table VI: O,H,H,H,H,C2H5, 1-ethyl-3-(4,5,6,7-tetrahydrobenzo[b]thien-4-yl)urea] | 87.6 |
| CCCCNC(=O)NC1CCCc2sccc21 (stereo not shown) [Table VI: O,H,H,H,H,n-butyl] | 25 |

same assay, conditions: Mus musculus, feed or water, 288 h, Table VI; 400 ppm in diet

| SMILES | change in vivo at 400 ppm [%] |
| --- | --- |
| CC(C)N(O)C(=O)NC1CCCc2sccc21 (stereo not shown) [Table VI: O,H,H,H,CH(CH3)2,OH] | 32 |
| CCNC(=O)NC1CCCc2sccc21 (stereo not shown) [Table VI: O,H,H,H,H,C2H5, 1-ethyl-3-(4,5,6,7-tetrahydrobenzo[b]thien-4-yl)urea] | 87.6 |
| O=C(NCc1ccccc1)NC1CCCc2sccc21 (stereo not shown) [Table VI: O,H,H,H,H,CH2C6H5, 1-benzyl-3-(4,5,6,7-tetrahydrobenzo[b]thien-4-yl)urea] | 32.4 |
| C#CCNC(=O)NC1CCCc2sccc21 (stereo not shown) [Table VI: O,H,H,H,H,CH2CCH] | 82 |
| O=C(NCC(F)(F)F)NC1CCCc2sccc21 (stereo not shown) [Table VI: O,H,H,H,H,CH2CF3] | 19 |
| O=C(NCCc1ccccc1)NC1CCCc2sccc21 (stereo not shown) [Table VI: O,H,H,H,H,CH2CH2C6H5, 1-phenethyl-3-(4,5,6,7-tetrahydrobenzo[b]thien-4-yl)urea] | 72.3 |
| O=C(NCCO)NC1CCCc2sccc21 (stereo not shown) [Table VI: O,H,H,H,H,CH2CH2OH] | 3 |
| COC(CNC(=O)NC1CCCc2sccc21)OC (stereo not shown) [Table VI: O,H,H,H,H,CH2CH(OCH3)2] | 22 |
| C=CCNC(=O)NC1CCCc2sccc21 (stereo not shown) [Table VI: O,H,H,H,H,CH2CHCH2] | 48.4 |
| N#CCNC(=O)NC1CCCc2sccc21 (stereo not shown) [Table VI: O,H,H,H,H,CH2CN] | 12 |
| COCNC(=O)NC1CCCc2sccc21 (stereo not shown) [Table VI: O,H,H,H,H,CH2OCH3, 1-(methoxymethyl)-3-(4,5,6,7-tetrahydrobenzo[b]thien-4-yl)urea] | 102 |
| CNC(=O)NC1CCCc2sccc21 (stereo not shown) [Table VI: O,H,H,H,H,CH3, 1-methyl-3-(4,5,6,7-tetrahydrobenzo[b]thien-4-yl)urea] | 134 |
| CC(C)NC(=O)NC1CCCc2sccc21 (stereo not shown) [Table VI: O,H,H,H,H,CH(CH3)2, 1-isopropyl-3-(4,5,6,7-tetrahydrobenzo[b]thien-4-yl)urea] | 88 |
| N#CNC(=O)NC1CCCc2sccc21 (stereo not shown) [Table VI: O,H,H,H,H,CN] | 1 |
| CN(C)NC(=O)NC1CCCc2sccc21 (stereo not shown) [Table VI: O,H,H,H,H,N(CH3)2] | 3 |
| COC(=O)NNC(=O)NC1CCCc2sccc21 (stereo not shown) [Table VI: O,H,H,H,H,NHCO2CH3] | 18 |
| CCONC(=O)NC1CCCc2sccc21 (stereo not shown) [Table VI: O,H,H,H,H,OC2H5, 1-ethoxy-3-(4,5,6,7-tetrahydrobenzo[b]-thien-4-yl)urea] | 61 |
| O=C(NOCc1ccccc1)NC1CCCc2sccc21 (stereo not shown) [Table VI: O,H,H,H,H,OCH2C6H5, 1-benzyloxy-3-(4,5,6,7-tetrahydrobenzo[b]thien-4-yl)urea] | 7.8 |
| C=CCONC(=O)NC1CCCc2sccc21 (stereo not shown) [Table VI: O,H,H,H,H,OCH2CHCH2] | 5 |
| O=C(O)CONC(=O)NC1CCCc2sccc21 (stereo not shown) [Table VI: O,H,H,H,H,OCH2CO2H] | 63.3 |
| CONC(=O)NC1CCCc2sccc21 (stereo not shown) [Table VI: O,H,H,H,H,OCH3, 1-methoxy-3-(4,5,6,7-tetrahydrobenzo[b]thien-4-yl)urea] | 68.6 |
| O=C(NO)NC1CCCc2sccc21 (stereo not shown) [Table VI: O,H,H,H,H,OH, 1-hydroxy-3-(4,5,6,7-tetrahydrobenzo[b]thien-4-yl)urea] | 103 |
| CCCCCCONC(=O)NC1CCCc2sccc21 (stereo not shown) [Table VI: O,H,H,H,H,On-C6H13] | 29 |
| CCCCCCNC(=O)NC1CCCc2sccc21 (stereo not shown) [Table VI: O,H,H,H,H,n-hexyl, 1-(n-hexyl)-3-(4,5,6,7-tetrahydrobenzo[b]thien-4-yl)urea] | 14.5 |
